# Biological target: T1, human FAAH (Homo sapiens, UniProt O00519)
# T1 construct: expressed in transfected cells; host or cells: H4 cells stably transfected with human FAAH (Geneticin selection); crude membrane homogenates
# T1 sequence (O00519 1-579): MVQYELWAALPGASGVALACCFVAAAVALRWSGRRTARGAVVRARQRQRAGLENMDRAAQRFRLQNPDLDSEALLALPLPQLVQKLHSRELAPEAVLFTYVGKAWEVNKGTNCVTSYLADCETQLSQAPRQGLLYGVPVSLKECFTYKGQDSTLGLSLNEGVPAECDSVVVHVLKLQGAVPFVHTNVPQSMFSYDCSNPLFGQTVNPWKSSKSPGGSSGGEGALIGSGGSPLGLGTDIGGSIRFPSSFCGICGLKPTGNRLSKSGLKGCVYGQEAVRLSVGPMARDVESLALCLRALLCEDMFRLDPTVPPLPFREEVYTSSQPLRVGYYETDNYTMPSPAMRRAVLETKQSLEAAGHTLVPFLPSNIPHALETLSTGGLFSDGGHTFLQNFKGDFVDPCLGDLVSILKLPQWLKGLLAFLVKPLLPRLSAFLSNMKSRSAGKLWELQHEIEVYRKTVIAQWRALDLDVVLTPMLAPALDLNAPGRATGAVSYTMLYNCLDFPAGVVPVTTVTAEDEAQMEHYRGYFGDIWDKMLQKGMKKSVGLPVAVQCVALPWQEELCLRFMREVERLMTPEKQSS
# Assay: Determination of FAAH activity (membrane homogenates of H4-FAAH cells, [3H]-anandamide hydrolysis)
# Format: biochemical
# Details: transfected human FAAH, H4-FAAH cell membranes, 10 μM anandamide, room temperature, one hour
# Method: Homogenates of crude membranes were prepared from H4 cells that express transfected human FAAH (H4-FAAH cells). Briefly, cells were grown in DMEM supplemented with 10% FBS and Geneticin at a final concentration of 500 μg/ml (Gibco BRL, Rockville, Md.). Confluent cultures of H4-FAAH cells were rinsed twice with phosphate-buffered saline [138 mM NaCl, 4.1 mM KCl, 5.1 mM Na2PO4, 1.5 mM KH2PO4 (pH 7.5), 37° C.] and incubated for 5-10 min. at 4° C. in lysis buffer [1 mM sodium bicarbonate]. Cells were transferred from plates to polypropylene tubes (16×100 mm), homogenized and centrifuged at 32,000×g for 30 min. Pellets were resuspended by homogenization in lysis buffer and centrifuged at 32,000×g for 30 min. Pellets were resuspended in lysis buffer (15-20 μg protein/ml) then stored at −80° C. until needed. On the day of an experiment, membranes were diluted to 2.67 μg protein/ml in 125 mM Tris-Cl, pH 9.0
# Activity of FAAH was measured using a modification of the method described by Omeir et al., 1995 (Life Sci 56:1999, 1995). Membrane homogenates (240 ng protein) were incubated at room temperature for one hour with 1.67 nM anandamide [ethanolamine 1-^3H] (American Radiolabeled Chemical Inc., St Louis, Mo.) and 10 μM anandamide (Sigma/RBI, St. Louis, Mo.) in the absence and presence of inhibitors. The reaction was stopped by the addition of 1 volume of a solution of methanol and dichloroethane (1:1). The mixture was shaken and then centrifuged at 1000×g for 15 min. to separate the aqueous and organic phases. An aliquot of the aqueous phase, containing [^3H]-ethanolamine was withdrawn and counted by scintillation spectroscopy. Data were expressed as the percentage of [^3H]-ethanolamine formed versus vehicle, after subtraction of the background radioactivity determined in the presence of 10 μM arachidonyl trifluoromethyl ketone (ATFMK), an inhibitor of FAAH. IC50 values were determined using a four-parameter logistic equation for dose-response curves.
row,Compound,IC50
1,"Cc1nc(-c2ccccc2)c(-c2ccccc2)n1CCOc1ccc(NC(=O)Oc2ccccc2)cc1 [Example 60, {4-[2-(2-Methyl-4,5-diphenyl-imidazol-1-yl)-ethoxy]-phenyl}-carbamic acid phenyl ester]",1000 to 10000 nM
2,"Cc1nc(-c2ccccc2)c(-c2ccccc2)n1CCCCCCNC(=O)Oc1ccc(Cl)cc1 [Example 12, [6-(2-Methyl-4,5-diphenyl-imidazol-1-yl)-hexyl]-carbamic acid 4-chloro-phenyl ester]",< 10 nM
3,"Cc1nc(-c2ccccc2)c(-c2ccccc2)n1CCCCCCCNC(=O)Oc1ccc(F)cc1F [Example 23, [7-(2-Methyl-4,5-diphenyl-imidazol-1-yl)-heptyl]-carbamic acid 2,4-difluoro-phenyl ester]",10 to 100 nM
4,"Cc1nc(-c2ccccc2)c(-c2ccccc2)n1CCCCCCNC(=O)OCc1ccccc1 [Example 5, [6-(2-Methyl-4,5-diphenyl-imidazol-1-yl)-hexyl]-carbamic acid benzyl ester]",1000 to 10000 nM
5,"Cc1nc(-c2ccccc2)c(-c2ccccc2)n1CCCCCCCNC(=O)Oc1ccc(Cl)cc1 [Example 24, [7-(2-Methyl-4,5-diphenyl-imidazol-1-yl)-heptyl]-carbamic acid 4-chloro-phenyl ester]",< 10 nM
6,"Cc1nc(-c2ccccc2)c(-c2ccccc2)n1CCCCCCNC(=O)O/N=C/c1cccnc1 [Example 51, 3-Pyridinecarboxaldehyde, O-[6-(2-methyl-4,5-diphenyl-1H-imidazol-1-yl)hexylaminocarbonyl]oxime]",10 to 100 nM
7,"COc1ccc(OC(=O)NCCCCCn2c(C)nc(-c3ccccc3)c2-c2ccccc2)cc1 [Example 36, [5-(2-Methyl-4,5-diphenyl-imidazol-1-yl)-pentyl]-carbamic acid 4-methoxy-phenyl ester]",10 to 100 nM
8,"COc1ccc(OC(=O)NCCCCCCn2c(C)nc(-c3ccccc3)c2-c2ccccc2)cc1 [Example 13, [6-(2-Methyl-4,5-diphenyl-imidazol-1-yl)-hexyl]-carbamic acid 4-methoxy-phenyl ester]",10 to 100 nM
9,"Cc1nc(-c2ccccc2)c(-c2ccccc2)n1CCCCCCNC(=O)Oc1ccc(F)cc1F [Example 11, [6-(2-Methyl-4,5-diphenyl-imidazol-1-yl)-hexyl]-carbamic acid 2,4-difluoro-phenyl ester]",< 10 nM
10,"Cc1nc(-c2ccccc2)c(-c2ccccc2)n1CCCCCCNC(=O)Oc1ccc(F)cc1 [Example 10, [6-(2-Methyl-4,5-diphenyl-imidazol-1-yl)-hexyl]-carbamic acid 4-fluoro-phenyl ester]",< 10 nM
11,"Cc1nc(-c2ccccc2)c(-c2ccccc2)n1CCCCCNC(=O)Oc1ccc(C#N)cc1 [Example 38, [5-(2-Methyl-4,5-diphenyl-imidazol-1-yl)-pentyl]-carbamic acid 4-cyano-phenyl ester]",10 to 100 nM
12,"Cc1nc(-c2ccccc2)c(-c2ccccc2)n1CCCCCCCNC(=O)Oc1ccc(F)cc1 [Example 21, [7-(2-Methyl-4,5-diphenyl-imidazol-1-yl)-heptyl]-carbamic acid 4-fluoro-phenyl ester]",10 to 100 nM
13,"COc1cccc(OC)c1OC(=O)NCCCCCCCn1c(C)nc(-c2ccccc2)c1-c1ccccc1 [Example 28, [7-(2-Methyl-4,5-diphenyl-imidazol-1-yl)-heptyl]-carbamic acid 2,6-dimethoxy-phenyl ester]",100 to 1000 nM
14,"CCOC(=O)NCCCCCn1c(C)nc(-c2ccccc2)c1-c1ccccc1 [Example 30, [5-(2-Methyl-4,5-diphenyl-imidazol-1-yl)-pentyl]-carbamic acid ethyl ester]",100 to 1000 nM
15,"Cc1nc(-c2ccccc2)c(-c2ccccc2)n1CCCCCCNC(=O)O/N=C/c1cccc([N+](=O)[O-])c1 [Example 49, 3-Nitrobenzaldehyde, O-[6-(2-methyl-4,5-diphenyl-1H-imidazol-1-yl)hexylaminocarbonyl]oxime]",10 to 100 nM
16,"Cc1nc(-c2ccccc2)c(-c2ccccc2)n1CCCCCCNC(=O)O/N=C/c1ccccc1 [Example 46, Benzaldehyde, O-[6-(2-methyl-4,5-diphenyl-1H-imidazol-1-yl)hexylaminocarbonyl]oxime]",10 to 100 nM

row,Compound,IC50
1,"Cc1nc(-c2ccccc2)c(-c2ccccc2)n1CCCCCNC(=O)Oc1ccccc1 [Example 31, [5-(2-Methyl-4,5-diphenyl-imidazol-1-yl)-pentyl]-carbamic acid phenyl ester]",10 to 100 nM
2,"Cc1nc(-c2ccccc2)c(-c2ccccc2)n1CCCCCCNC(=O)O/N=C/c1ccccc1[N+](=O)[O-] [Example 48, 2-Nitrobenzaldehye, O-[6-(2-methyl-4,5-diphenyl-1H-imidazol-1-yl)hexylaminocarbonyl]oxime]",10 to 100 nM
3,"Cc1nc(-c2ccccc2)c(-c2ccccc2)n1CCCCCNC(=O)Oc1ccc(F)cc1F [Example 33, [5-(2-Methyl-4,5-diphenyl-imidazol-1-yl)-pentyl]-carbamic acid 2,4-difluoro-phenyl ester]",10 to 100 nM
4,"COc1cccc(OC)c1OC(=O)NCCCCCn1c(C)nc(-c2ccccc2)c1-c1ccccc1 [Example 39, [5-(2-Methyl-4,5-diphenyl-imidazol-1-yl)-pentyl]-carbamic acid 2,6-dimethoxy-phenyl ester]",1000 to 10000 nM
5,"Cc1ccccc1OC(=O)NCCCCCCCn1c(C)nc(-c2ccccc2)c1-c1ccccc1 [Example 26, [7-(2-Methyl-4,5-diphenyl-imidazol-1-yl)-heptyl]-carbamic acid o-tolyl ester]",10 to 100 nM
6,"COc1ccc(OC(=O)Nc2ccc(OCCCn3c(C)nc(-c4ccccc4)c3-c3ccccc3)cc2)cc1 [Example 56, {4-[3-(2-Methyl-4,5-diphenyl-imidazol-1-yl)-propoxy]-phenyl}-carbamic acid 4-methoxy-phenyl ester]",100 to 1000 nM
7,"Cc1nc(-c2ccccc2)c(-c2ccccc2)n1CCCOc1ccc(NC(=O)Oc2c(F)cccc2F)cc1 [Example 69, {4-[3-(2-Methyl-4,5-diphenyl-imidazol-1-yl)-propoxy]-phenyl}-carbamic acid 2,6-difluoro-phenyl ester]",1000 to 10000 nM
8,"CCc1nc(-c2ccccc2)c(-c2ccccc2)n1CCCCCCNC(=O)OC(C)(C)C [Example 2, [6-(2-Ethyl-4,5-diphenyl-imidazol-1-yl)-hexyl]-carbamic acid tert-butyl ester]",1000 to 10000 nM
9,"Cc1nc(-c2ccc(F)cc2)c(-c2ccc(F)cc2)n1CCCCCCNC(=O)Oc1ccccc1F [Example 43, {6-[4,5-Bis-(4-fluoro-phenyl)-2-methyl-imidazol-1-yl]-hexyl}-carbamic acid 2-fluoro-phenyl ester]",< 10 nM
10,"Cc1nc(-c2ccccc2)c(-c2ccccc2)n1CCCCCC(NC(=O)Oc1ccccc1F)C(C)C (stereo not shown) [Example 73, [1-Isopropyl-6-(2-methyl-4,5-diphenyl-imidazol-1-yl)-hexyl]-carbamic acid 2-fluoro-phenyl ester]",100 to 1000 nM
11,"COc1cccc(OC)c1OC(=O)NCCCCCCn1c(C)nc(-c2ccccc2)c1-c1ccccc1 [Example 16, [6-(2-Methyl-4,5-diphenyl-imidazol-1-yl)-hexyl]-carbamic acid 2,6-dimethoxy-phenyl ester]",100 to 1000 nM
12,"Cc1nc(-c2ccccc2)c(-c2ccccc2)n1CCCCCCNC(=O)Oc1ccc(C#N)cc1 [Example 15, [6-(2-Methyl-4,5-diphenyl-imidazol-1-yl)-hexyl]-carbamic acid 4-cyano-phenyl ester]",10 to 100 nM
13,"COC(=O)NCCCCCCCn1c(C)nc(-c2ccccc2)c1-c1ccccc1 [Example 18, [7-(2-Methyl-4,5-diphenyl-imidazol-1-yl)-heptyl]-carbamic acid methyl ester]",100 to 1000 nM
14,Cc1nc(-c2ccccc2)c(-c2ccccc2)n1CCCCCCNC(=O)Oc1ccccc1 [Example 9],< 10 nM
15,"Cc1nc(-c2ccccc2)c(-c2ccccc2)n1CCCCCNC(=O)Oc1ccccc1F [Example 34, [5-(2-Methyl-4,5-diphenyl-imidazol-1-yl)-pentyl]-carbamic acid 2-fluoro-phenyl ester]",10 to 100 nM

# — patent publication USRE39634E1, “Bisarylimidazoly fatty acid amide hydrolase inhibitors” (Bristol-Myers Squibb Company, priority 2001, dated 2007)
